≈ marks a conversion by molar mass, not a printed value. Like-named read-outs stand apart in the source and are kept apart here.

The record followed here is patent US5356886A, “Antiviral phosphono-alken derivatives of purines” (Beecham Group p.l.c., priority 1990, dated 1994).

Common to all, as to assay type: cell-based
The nature of series [1]: Cytotoxicity for the cell monolayers in the FIV test. The conditions noted are these: cat, crandell feline kidney cells. The method, then: (§1) Drug stocks were diluted to the appropriate concentration, in medium (e.g. 10 mg/ml to 200 μg/ml). 150 μl of each drug was dispersed in triplicate, across the top row of a microtitre plate (150 μl of media for virus and cell control, vc and cc). 100 μl of medium was dispersed into all other wells. The wells were serially diluted moving down the plate, removing 50 μl from each well and transferring to the next row. 50 μl was discarded from the bottom wells.
(§2) Trypsinisation was carried out from a confluent cell monolayer of Crandell Feline Kidney cells, in 10% trypsin, followed by resuspension in media at 1×10^6 per ml, ensuring that a single cell suspension is achieved. (Media: 90% 1×RPMI, 25 mM hepes buffer; 10% Foetal calf serum; 2% Glutamine; 2% penecillin/streptomycin.)
(§3) FIV Glasgow 8 virus was diluted to 4× the required virus challenge in medium (40 TCID50 /ml). The virus infected medium was mixed with an equal volume of cell suspension, 100 μl of which was aliquoted into each well of the drug plate, except cell control. 100 μl of cell suspension at 5×10^4 per ml was added to the latter. This gives a final cell concentration of 2.5×10^4 per ml, and drug range 100-0.03 μg/ml. The plates were incubated at 37° C., 5% CO2 in an air humidified incabator for 11-14 days. The cells were fixed by immersing the plates in formoli saline (10% formaldehyde; 10% 1.5M NaCl; 80% water) for 1 hour minimum. The cells were stained with 10% crystal violet for 15 minutes.
(§4) The assay was scored by looking for presence of syncitia and, virus induced cytopathic effect in the cell monolayers, under a microscope. Results are given as the minimum concentration of drug inhibiting syncitial production, minimum inhibitory concentration, MIC.

For the next series, the system named is FIV. Briefly: Test for Feline Immunodeficiency Virus (FIV Glasgow 8) in Crandell Feline Kidney cells. The conditions noted are these: FIV Glasgow 8, Crandell Feline Kidney cells, 11-14 days, read-out: MIC (minimum concentration of drug inhibiting syncitial production). On the procedure:
as §1, §2, §3, §4

Series [2] relates to HIV. Nature of the series: HIV Suppression test, viral RNA (nucleic acid hybridisation) in peripheral human lymphocytes. The conditions noted are these: Human immunodeficiency virus 1, Lymphocyte, 96 h; Concn. 10 μM; read-out: % Inhibition on Day 4 after infection, Viral RNA. The method, then: (§5) Peripheral human lymphocytes were prepared, cultivated, and harvested as above. Following the determination of the lymphocyte surface markers, unstimulated and mitogen stimulated cells were combined in a ratio of 1:2.
(§6) Under safety conditions these cells are infected with a standard preparation of HIV. The cells are sedimented by centrifugation. The supernatant was discarded and cells were resuspended in the HIV inoculum.
(§7) This inoculum is a liquid suspension of HIV-1 strain virus, pretested and adjusted to a titer that results in a synthesis of viral core protein p24 of >100 ng/ml at day four following infection of human lymphocytes according to the protocol.
(§8) 3×10^8 lymphocytes were resuspended in 1 ml HIV inoculum and incubated at 37° C. for 60 minutes. Subsequently, the cells were washed two times with 50 ml of culture medium and resuspended in culture medium containing 10 units/ml of human recombinant interleukin-2 to yield a cell concentration of 2×10^6 cells/ml. 100 μof this cell suspension was added to each well of the microtiter plates containing the diluted solutions of the compounds. The microtiter plates were cultivated in an incubator with a humidified atmosphere and 5% CO2 at 37° C.
(§9) Accordingly, a fraction of lymphocytes was mock-infected with the same virus preparation that was heat inactivated (30 minutes at 56° C.) prior to infection.
(§10) On each of the days 2,3 and 4 post infection one of the microtiter plates which had been established in triplicate was prepared for determination of viral replication. Viral RNA is determined within the cells whereas the viral core protein p24 was detected in the supernatant of the lymphocyte culture.
(§11) Accordingly, 150 μl of supernatant were removed from each well and transferred to the well of a microtiter plate containing 50 μl/well of SDS (sodium dodecylsulfate, 0.08%). These plates were stored frozen. 50 μl of stop solution (1% SDS, 20 mM sodium acetate, pH 5.0, and 200 μg/ml heparin) were added to the cells remaining in each well. The plates were stored frozen.
(§12) The concentration of p24 synthesized by the HIV infected cells was determined by means of a sandwich ELISA, while the concentration of viral RNA was quantitated by nucleic acid hybridisation, using a ^32 P-labelled DNA probe for the gag/pol region of the viral genome. Absolute levels of viral antigen and RNA in drug treated samples were compared with untreated, virus-infected controls and the percentage inhibition calculated.

In the next series the test system is Visna Virus. Briefly: CPE Inhibition Test (Established Monolayer) for Lentiviruses, visna virus (strain K184) in sheep choroid plexus cells. The conditions noted are these: Visna-maedi virus; visna virus strain K184, SCP cells; read-out: MIC (minimum concentration giving complete protection of the cell monolayers). The method, then: 3×10^4 sheep choroid plexus (SCP) cells were plated into individual wells of a 96 well microtitre plate in 100 μl of Eagle's MEM with Hanks' salts containing 10% heat inactivated foetal calf serum (FCS). When monolayers had become established (after 1 or 2 days growth) they were washed with 200 μl of maintenance medium (Eagle's MEM with Hanks' salts containing 0.5% FCS) and infected with 100 μl of visna virus (strain K184) in maintenance medium (30 TCID50/ml). Test samples were diluted with maintenance medium in further 96 well microtitre plates over the range 200-0.06 μg/ml by 3-fold dilution steps. 100 μl of the diluted samples was then transferred directly onto virus-infected monolayers (final concentration range therefore 100-0.03 μg/ml) and […] containing 5% CO2 until virus-induced CPE was maximal in the untreated virus-infected controls (usually 12-14 days). The plates were fixed with formal saline and stained with crystal violet. Virus-induced CPE was then scored microscopically and the minimum concentration of sample giving complete protection of the cell monolayers (MIC) determined.

Series [3] concerns HIV. Briefly: HIV Suppression test, viral antigen (core protein p24, sandwich ELISA) in peripheral human lymphocytes. The conditions noted are these: Human immunodeficiency virus 1, Lymphocyte, 96 h; Concn. 10 μM; read-out: % Inhibition on Day 4 after infection, Viral Antigen. The method, then:
as §5, §6, §7, §8, §9, §10, §11, §12
On the technique in general: In an ELISA, binding on a coated surface is turned into a signal by an enzyme label.

In another series the test system is HSV-2. Nature of the series: Plaque Reduction Test for Herpes Simplex Virus 2 (strain MS) in MRC-5 cells. The conditions noted are these: Human alphaherpesvirus 2, MRC5. The method, then:
(§13) MRC-5 cells were grown to confluence in 24 well multi-dishes (well diameter=1.5 cm). The drained cell monolayers were each infected with approximately 50 infectious particles of herpes simplex virus 1 (HSV-1; strain SC16) or herpes simplex virus 2 (HSV-2; strain MS) in 100 μl of phosphate-buffered saline. The virus was adsorbed for 1 hour at room temperature. After adsorption, residual inoculum was removed from each well and replaced with 0.5 ml of Eagle's MEM containing 5% newborn calf serum and 0.9% agarose (A37). Once the agarose had set, dilutions of the test compound, which had been prepared in Eagle's MEM (containing 5% newborn calf serum), were added, each well receiving 0.5 ml of liquid overlay. The test compound was diluted to give the following series of concentrations: 200, 60, 20, 6 . . . 0.06 μg/ml; final concentrations in the assay ranged, therefore, between 100 μg/ml and 0.03 μg/ml. The infected cultures were incubated at 37° C. in a humidified atmosphere of 5% CO2 until plaques were clearly visible (usually 1 day).
(§14) Cultures from 1 and 2 were fixed in formal saline, the agarose overlays were carefully washed off, and then the cell monolayers were stained with carbol fuchsin. A stereo microscope was used to count plaques. The IC50 (concentration of drug which inhibits the number of plaques formed by 50% relative to the number of plaques observed in virus control monolayers) of the test compound was calculated. In addition, the monolayers were examined for evidence of drug-induced cytotoxicity; the minimum concentration at which cytotoxicity occurs was recorded.
(Plaque reduction counts the foci of infection that form in a cell layer.)

The subject of the next series is HSV-1. Briefly: Plaque Reduction Test for Herpes Simplex Virus 1 (strain SC16) in MRC-5 cells. The conditions noted are these: Human alphaherpesvirus 1, MRC5. The method, then: as §13, §14
The subject of the next series is VZV. Nature of the series: Plaque Reduction Test for Varicella-Zoster Virus (Ellen strain) in MRC-5 cells. The conditions noted are these: Human alphaherpesvirus 3, MRC5. On the procedure: as §13, with “varicella zoster” for “herpes simplex”, “(VZV; Ellen strain)” for “1 (HSV-1; strain SC16) or herpes simplex virus 2 (HSV-2; strain MS)”, “heat-inactivated foetal” for “newborn”, “(5 or 6 days).” for “(usually 1 day).”
as §14

Another series deals with CMV. Nature of the series: Plaque Reduction Test for Cytomegalovirus (AD-169 strain) in MRC-5 cells. The conditions noted are these: Human betaherpesvirus 5, AD169, MRC5. On the procedure: MRC-5 cells were grown to confluence in 24 well multi-dishes (well diameter=1.5 cm). The drained cell monolayers were each infected with approximately 50 infectious particles of cytomegalovirus (CMV; AD-169 strain) in 100 μl of phosphate-buffered saline. The virus was adsorbed for 1 hour at room temperature. After adsorption, residual inoculum was removed from each well and replaced with 1 ml of Eagle's MEM containing 10% heat inactivated foetal calf serum and 0.9% agarose (A37). Once the agarose had set, dilutions of the test compound, which had been prepared in Eagle's MEM (containing 10% heat-inactivated calf serum), were added, each well receiving 1 ml of liquid overlay. The test compound was diluted to give the following series of concentrations: 200, 60, 20, 6 . . . 0.06 μg/ml; final concentrations in the assay range, therefore, between 100 μg/ml and 0.03 μg/ml. The infected cultures were incubated at 37° C. in a humidified atmosphere containing 5% CO2 until plaques were clearly visible (about 12 days). The cultures are fixed in formol saline, the agarose overlays were carefully washed off, and then the cell monolayers were stained with carbol fuchsin. A stereo microscope was used to count plaques. The IC50 (concentration of drug which inhibits the number of plaques formed by 50% relative to the number of plaques observed in virus control monolayers) of the test compound was calculated. In addition, the monolayers were examined for evidence of drug-induced cytotoxicity; the minimum concentration at which cytotoxicity occurs was recorded.

Where [4] appears, read: no cytotoxicity noted with concentrations up to this value, read-out: cytotoxicity for the cell monolayers.
Where [5] appears, read: read-out: concentration at which cytotoxicity was noted.

`Nc1ncnc2c1ncn2OCC/C=C/P(=O)(O)O` [Example 3, (E)-9-(4-phosphonobut-3-enyloxy)adenine]: the MCC in series [1] (setting [4]) was more than 100 µg/mL. Also, the MIC in the series with FIV and in the series on Visna Virus was 10 µg/mL (≈ 35.1 µM) each time. The inhibition at 10 µM in the series with HIV [2] turned out to be 44%; with HIV [3] it was 47%.

Consider `Nc1ncnc2c1ncn2CC/C=C/P(=O)(O)O` [Example 5, (E)-9-[4-Phosphonobut-3-enyl]adenine], for which the MIC with Visna Virus stood at 1 µg/mL (≈ 3.71 µM).

Consider `Nc1nc2c(ncn2CC/C=C/P(=O)(O)O)c(=O)[nH]1` [Example 6, (E)-9-[4-phosphonobut-3-enyl]guanine], for which the concentration for half-maximal inhibition (IC50) was found to be 26 µg/mL (≈ 91.2 µM) in the series on HSV-2, 100 µg/mL (≈ 351 µM) with HSV-1, 55 µg/mL (≈ 193 µM) with VZV and 15 µg/mL (≈ 52.6 µM) in the series with CMV. Besides, the MIC in the series on Visna Virus came out at 0.1 µg/mL (≈ 0.351 µM).

As for `Nc1nc(N)c2ncn(CC/C=C/P(=O)(O)O)c2n1` [Example 8, (E)-2,6-Diamino-9-(4-phosphonobut-3-enyl)purine], the inhibition at 10 µM in the series on HIV [2] came to 62%; in the series with HIV [3], 37%. The MIC in the series with Visna Virus was found to be 0.3 µg/mL (≈ 1.06 µM).

`Nc1ncnc2c1ncn2OCC/C=C\P(=O)(O)O` [Example 10, (Z)-9-(4-Phosphonobut-3-enyloxy) adenine]: in the series on Visna Virus, the MIC was found to be 100 µg/mL (≈ 351 µM).

Regarding `Nc1nc2c(ncn2OCC/C=C\P(=O)(O)O)c(=O)[nH]1` [Example 11, (Z)-9-(4-phosphonobut-3-enyloxy)guanine], the concentration for half-maximal inhibition (IC50) in the series on HSV-2 is more than 100 µg/mL; in the series with HSV-1, 100 µg/mL (≈ 332 µM); with VZV, more than 100 µg/mL; in the series with CMV, 55 µg/mL (≈ 183 µM). Also, the inhibition at 10 µM turned out to be 33% with HIV [2] and 3% in the series with HIV [3]. Besides, the MIC in the series with Visna Virus was less than 0.03 µg/mL.

Take `Nc1nc2c(ncn2OCC(/C=C/P(=O)(O)O)CO)c(=O)[nH]1` (stereo not drawn) [Example 13, (E)-9-(2-hydroxymethyl-4-phosphonobut-3-enyloxy)guanine]: the MCC in series [1] (setting [5]) amounted to 1 µg/mL. For the same molecule, the MIC with FIV amounted to 0.1 µg/mL (≈ 0.302 µM). In addition, the IC50 came out at 60 µg/mL (≈ 181 µM) in the series on HSV-2, 100 µg/mL (≈ 302 µM) in the series on HSV-1, 5 µg/mL (≈ 15.1 µM) in the series with VZV and 15 µg/mL (≈ 45.3 µM) in the series with CMV.

Consider `Nc1ncnc2c1ncn2OCC(/C=C/P(=O)(O)O)CO` (stereo not drawn) [Example 15, (E)-9-(2-hydroxymethyl-4-phosphonobut-3-enyloxy) adenine], for which the MCC in series [1] (setting [4]) is more than 100 µg/mL. The MIC in the series with FIV was 30 µg/mL (≈ 95.2 µM).

Regarding `Nc1ncnc2c1ncn2CC(/C=C/P(=O)(O)O)CO` (stereo not drawn) [Example 17, (E)-9-(2-Hydroxymethyl-4-phosphonobut-3-enyl)adenine], the MCC in series [1] (setting [5]) amounted to 10 µg/mL. Further, the MIC with FIV came out at 0.03 µg/mL (≈ 0.1 µM). Besides, the concentration for half-maximal inhibition (IC50) is 29 µg/mL (≈ 96.9 µM) in the series on HSV-2, 20 µg/mL (≈ 66.8 µM) in the series on HSV-1, less than 3 µg/mL in the series on VZV and 11 µg/mL (≈ 36.8 µM) in the series on CMV.

For orientation: inhibition means the share of the control response that was lost under treatment. A word on the IC50: it is the midpoint of a concentration-inhibition curve.
